Each compound was assayed against Human immunodeficiency virus type 1 protease (Human immunodeficiency virus 1, UniProt Q72874) (assay: The compound was tested in vitro for its inhibitory activity against HIV-1 Proteinase activity).

Compared with `CCCNC(=O)[C@@H](NC(=O)Cc1ccccc1)[C@@H]1N[C@@H](C(=O)N(C)CCN(C)C(=O)[C@@H]2N[C@@H]([C@H](NC(=O)Cc3ccccc3)C(=O)NCC)SC2(C)C)C(C)(C)S1`, `CCCNC(=O)[C@@H](NC(=O)Cc1ccccc1)[C@@H]1N[C@@H](C(=O)NCC(CO)NC(=O)[C@@H]2N[C@@H]([C@H](NC(=O)Cc3ccccc3)C(=O)NCC)SC2(C)C)C(C)(C)S1` (stereo partly specified) is 2.3-fold higher in IC50: 11 nM for the first, 25 nM for the second. The first is the more potent here.

Going from `CC1(C)S[C@H]([C@H](NC(=O)Cc2ccccc2)C(=O)NCc2ccccc2)N[C@H]1C(=O)NC[C@H](O)[C@@H](O)CNC(=O)[C@@H]1N[C@@H]([C@H](NC(=O)Cc2ccccc2)C(=O)NCc2ccccc2)SC1(C)C` to `CC1(C)S[C@H]([C@H](NC(=O)Cc2ccccc2)C(=O)NCc2ccccc2)N[C@H]1C(=O)NC[C@@H](O)[C@H](O)CNC(=O)[C@@H]1N[C@@H]([C@H](NC(=O)Cc2ccccc2)C(=O)NCc2ccccc2)SC1(C)C`, the IC50 falls from 36 nM to 15 nM (2.4-fold).

First: CC1(C)S[C@H]([C@H](NC(=O)Cc2ccccc2)C(=O)NCc2ccccc2)N[C@H]1C(=O)NCCCCNC(=O)[C@@H]1N[C@@H]([C@H](NC(=O)Cc2ccccc2)C(=O)NCc2ccccc2)SC1(C)C
Second: CC1(C)S[C@H]([C@H](NC(=O)Cc2ccccc2)C(=O)NCc2ccccc2)N[C@H]1C(=O)NC[C@@H](O)[C@@H](O)CNC(=O)[C@@H]1N[C@@H]([C@H](NC(=O)Cc2ccccc2)C(=O)NCc2ccccc2)SC1(C)C
The IC50 of the first is 38-fold higher: 530 nM for the first, 14 nM for the second. The second is the more potent here.
